US9809573B2, “Substituted pyridine derivatives useful as GSK-3 inhibitors” (priority 2013, dated 2017)
Where two headings read alike, the source gives them in different places.

Key:
GSK3α = GSK3α (Homo sapiens, UniProt P49840); assay: biochemical
Description: (§1) The kinase assay was performed in V-bottom 384-well plates. […] The reaction was incubated at room temperature for 20 hours and terminated by adding 45 μl of 35 mM EDTA to each sample. The reaction mixture was analyzed on the Caliper LabChip3000 (Caliper, Hopkinton, Mass.) by electrophoretic separation of the unphosphorylated substrate and phosphorylated product. […] Compounds were dissolved at 10 mM in dimethylsulfoxide (DMSO) and evaluated at eleven concentrations. IC50 values were derived by non-linear regression analysis.

GSK3β = GSK3β (Homo sapiens, UniProt P49841); assay: GSK3β kinase assay (Caliper LabChip3000, fluoresceinated peptide substrate); format: biochemical
Sequence of GSK3β (P49841 whole entry, species assumed): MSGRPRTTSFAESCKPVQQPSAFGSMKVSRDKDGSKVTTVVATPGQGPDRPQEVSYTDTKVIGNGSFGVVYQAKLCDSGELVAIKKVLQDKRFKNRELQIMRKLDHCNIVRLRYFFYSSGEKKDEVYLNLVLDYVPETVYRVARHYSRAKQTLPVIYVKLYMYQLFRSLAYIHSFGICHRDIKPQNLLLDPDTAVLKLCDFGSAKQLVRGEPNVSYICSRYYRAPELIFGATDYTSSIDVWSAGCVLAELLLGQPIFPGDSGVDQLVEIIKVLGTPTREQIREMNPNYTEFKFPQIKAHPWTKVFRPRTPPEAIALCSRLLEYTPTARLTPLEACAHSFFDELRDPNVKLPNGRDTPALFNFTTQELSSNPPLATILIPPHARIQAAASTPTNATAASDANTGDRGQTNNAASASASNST
Description: as §1

[1] = second value of the cell, 250 pM enzyme, 20 uM ATP, 20 hours at room temperature, read-out: GSK3β/α (nM): GSK3α IC50
[2] = first value of the cell, 250 pM enzyme, 20 uM ATP, 20 hours at room temperature, read-out: GSK3β/α (nM): GSK3β IC50

Sequence of GSK3α (P49840 whole entry, species assumed): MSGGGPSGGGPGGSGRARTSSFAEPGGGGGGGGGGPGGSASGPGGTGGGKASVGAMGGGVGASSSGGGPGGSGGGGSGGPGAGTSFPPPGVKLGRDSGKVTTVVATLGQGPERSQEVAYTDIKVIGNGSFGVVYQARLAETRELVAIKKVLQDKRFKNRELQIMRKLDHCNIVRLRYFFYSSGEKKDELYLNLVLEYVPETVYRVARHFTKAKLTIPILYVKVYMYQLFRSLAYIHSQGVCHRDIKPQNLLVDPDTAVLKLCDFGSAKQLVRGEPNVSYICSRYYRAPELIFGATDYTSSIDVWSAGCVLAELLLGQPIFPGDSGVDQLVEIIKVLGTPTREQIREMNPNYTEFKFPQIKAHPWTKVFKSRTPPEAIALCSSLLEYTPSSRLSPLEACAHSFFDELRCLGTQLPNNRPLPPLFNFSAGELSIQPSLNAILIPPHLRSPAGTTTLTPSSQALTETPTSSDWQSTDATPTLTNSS

Compound | IC50 (GSK3α; [1]) [nM] | IC50 (GSK3β; [2]) [nM] | IC50 (GSK3α) [nM] | IC50 (GSK3β) [nM]
2-((1,3-Cis)-3-chlorocyclobutanecarboxamido)-N-(4-phenylpyridin-3-yl)isonicotinamide [Example 221] | 0.09 | 0.16 |  | 
2-((1,3-Trans)-3-chlorocyclobutanecarboxamido)-N-(4-phenylpyridin-3-yl)isonicotinamide [Example 220] | 0.22 | 0.37 |  | 
O=C(Nc1cncc2c1CCCC2)c1ccnc(NC(=O)C2CC2)c1 [Example 21, 2-(Cyclopropanecarboxamido)-N-(5,6,7,8-tetrahydroisoquinolin-4-yl)isonicotinamide] | 3.3 | 13 |  | 
O=C(Nc1cnccc1-c1ccc(C(F)(F)F)cc1C(F)(F)F)c1ccnc(NC(=O)C2CC2)c1 [Example 65, N-(4-(2,4-bis(trifluoromethyl)phenyl)pyridin-3-yl)-2-(cyclopropanecarboxamido)isonicotinamide] | 25 | 29 |  | 
N#Cc1cc(F)ccc1-c1ccncc1NC(=O)c1ccnc(NC(=O)C2CC2)c1 [Example 89, N-(4-(2-cyano-4-fluorophenyl)pyridin-3-yl)-2-(cyclopropanecarboxamido)isonicotinamide] | 190 | 470 |  | 
O=C(Nc1cncc(-c2ccsc2)c1)c1ccnc(NC(=O)C2CC2)c1 [Example 117, 2-(cyclopropanecarboxamido)-N-(5-(thiophen-3-yl)pyridin-3-yl)isonicotinamide] | 1.9 | 1.2 |  | 
O=C(Nc1cncc(-c2ccoc2)c1)c1ccnc(NC(=O)C2CC2)c1 [Example 121, 2-(cyclopropanecarboxamido)-N-(5-(furan-3-yl)pyridin-3-yl)isonicotinamide] | 0.99 | 2.4 |  | 
Cc1ccccc1-c1cncc(NC(=O)c2ccnc(NC(=O)C3CC3)c2)c1 [Example 122, 2-(cyclopropanecarboxamido)-N-(5-(o-tolyl)pyridin-3-yl)isonicotinamide] | 3.3 | 7.3 |  | 
O=C(Nc1cncc(-c2cccnc2)c1)c1ccnc(NC(=O)C2CC2)c1 [Example 125, N-([3,3′-bipyridin]-5-yl)-2-(cyclopropanecarboxamido)isonicotinamide] | 0.86 | 2 |  | 
O=C(Nc1cncc(-c2cccc(F)c2)c1)c1ccnc(NC(=O)C2CC2)c1 [Example 126, 2-(cyclopropanecarboxamido)-N-(5-(3-fluorophenyl)pyridin-3-yl)isonicotinamide] | 1.1 | 2.5 |  | 
O=C(Nc1cncc(-c2ccccc2Cl)c1)c1ccnc(NC(=O)C2CC2)c1 [Example 127, N-(5-(2-chlorophenyl)pyridin-3-yl)-2-(cyclopropanecarboxamido)isonicotinamide] | 0.54 | 1.3 |  | 
O=C(Nc1cncc(-c2ccccn2)c1)c1ccnc(NC(=O)C2CC2)c1 [Example 128, N-([2,3′-bipyridin]-5′-yl)-2-(cyclopropanecarboxamido)isonicotinamide] | 2.6 | 0.5 |  | 
O=C(Nc1cncc(-c2csc3ccccc23)c1)c1ccnc(NC(=O)C2CC2)c1 [Example 129] | 7 | 5.1 |  | 
Cc1cscc1-c1cncc(NC(=O)c2ccnc(NC(=O)C3CC3)c2)c1 [Example 130, 2-(cyclopropanecarboxamido)-N-(5-(4-methylthiophen-3-yl)pyridin-3-yl)isonicotinamide] | 0.41 | 2.5 |  | 
N#Cc1cscc1-c1cncc(NC(=O)c2ccnc(NC(=O)C3CC3)c2)c1 [Example 131, N-(5-(4-cyanothiophen-3-yl)pyridin-3-yl)-2-(cyclopropanecarboxamido)isonicotinamide] | 0.76 | 0.41 |  | 
O=C(Nc1cncc(C2CCCC2)c1)c1ccnc(NC(=O)C2CC2)c1 [Example 132, N-(5-cyclopentylpyridin-3-yl)-2-(cyclopropanecarboxamido)isonicotinamide] | 8 | 4.1 |  | 
O=C(Nc1cncc(-c2ccc(Cl)cc2)c1)c1ccnc(NC(=O)C2CC2)c1 [Example 133, N-(5-(4-chlorophenyl)pyridin-3-yl)-2-(cyclopropanecarboxamido)isonicotinamide] | 4.4 | 3.3 |  | 
COc1cccc(-c2cncc(NC(=O)c3ccnc(NC(=O)C4CC4)c3)c2)c1F [Example 139, 2-(cyclopropanecarboxamido)-N-(5-(2-fluoro-3-methoxyphenyl)pyridin-3-yl)isonicotinamide] | 0.81 |  |  | 3.7

More lines, main results first:

IC50 (GSK3α; [1]) [nM] | IC50 (GSK3β; [2]) [nM] | IC50 (GSK3α) [nM] | Compound | IC50 (GSK3β) [nM]
 | 2.7 |  | CC(C)c1ccccc1-c1cncc(NC(=O)c2ccnc(NC(=O)C3CC3)c2)c1 [Example 134, 2-(cyclopropanecarboxamido)-N-(5-(2-isopropylphenyl)pyridin-3-yl)isonicotinamide] | 
 | 2.7 |  | Cc1cc(-c2cncc(NC(=O)c3ccnc(NC(=O)C4CC4)c3)c2)c(C)s1 [Example 135, 2-(cyclopropanecarboxamido)-N-(5-(2,5-dimethylthiophen-3-yl)pyridin-3-yl)isonicotinamide] | 
5.4 | 19 |  | CC(C)Oc1ccccc1-c1cncc(NC(=O)c2ccnc(NC(=O)C3CC3)c2)c1 [Example 136, 2-(cyclopropanecarboxamido)-N-(5-(2-isopropoxyphenyl)pyridin-3-yl)isonicotinamide] | 
 |  | 0.74 | O=C(Nc1cncc(-c2cccc(F)c2F)c1)c1ccnc(NC(=O)C2CC2)c1 [Example 137, 2-(cyclopropanecarboxamido)-N-(5-(2,3-difluorophenyl)pyridin-3-yl)isonicotinamide] | 3.4
1.8 | 10.5 |  | O=C(Nc1cncc(-c2cccc(Cl)c2Cl)c1)c1ccnc(NC(=O)C2CC2)c1 [Example 138, 2-(cyclopropanecarboxamido)-N-(5-(2,3-dichlorophenyl)pyridin-3-yl)isonicotinamide] | 
2.8 | 13 |  | O=C(Nc1cncc(-c2cccc(Cl)c2F)c1)c1ccnc(NC(=O)C2CC2)c1 [Example 140, N-(5-(3-chloro-2-fluorophenyl)pyridin-3-yl)-2-(cyclopropanecarboxamido)isonicotinamide] | 
4.3 | 21 |  | O=C(Nc1cncc(-c2c(F)cccc2F)c1)c1ccnc(NC(=O)C2CC2)c1 [Example 141, 2-(cyclopropanecarboxamido)-N-(5-(2,6-difluorophenyl)pyridin-3-yl)isonicotinamide] | 
35 | 190 |  | O=C(Nc1cncc(-c2cccc3cccnc23)c1)c1ccnc(NC(=O)C2CC2)c1 [Example 143, 2-(cyclopropanecarboxamido)-N-(5-(quinolin-8-yl)pyridin-3-yl)isonicotinamide] | 
15 | 55 |  | CC(=O)c1ccccc1-c1cncc(NC(=O)c2ccnc(NC(=O)C3CC3)c2)c1 [Example 144, N-(5-(2-acetylphenyl)pyridin-3-yl)-2-(cyclopropanecarboxamido)isonicotinamide] | 
 | 3.9 |  | O=C1CC(C(=O)Nc2cc(C(=O)Nc3cnccc3-c3ccccc3)ccn2)C1 [Example 218, 2-(3-Oxocyclobutanecarboxamido)-N-(4-phenylpyridin-3-yl)isonicotinamide] | 
 | 1.6 |  | O=C1CCC(C(=O)Nc2cc(C(=O)Nc3cnccc3-c3ccccc3)ccn2)C1 (stereo not drawn) [Example 229, 2-(3-Oxocyclopentanecarboxamido)-N-(4-phenylpyridin-3-yl)isonicotinamide] | 
